Earlier results on four compounds are cited in patent US20110153027A1, “Drug Delivery System” (Vysera Biomedical Limited, priority 2009, published 2011).

The conditions of data set [1]: compared with cyclosporine.
The conditions of data set [2]: minimum effective concentration.

SMILES strings stand for the structures.

In the case of `Cc1ncc([N+](=O)[O-])n1CCO` [Metronidazole], in data set [1], the water solubility result is reported as “higher water solubility than cyclosporine”. Further, the “MEC” value in data set [2] is 8 µg/mL.
`Sc1ncnc2nc[nH]c12` [6-mercaptopurine]: in data set [2], the “MEC” value is 1 µg/mL.
For `Cn1cnc([N+](=O)[O-])c1Sc1ncnc2nc[nH]c12` [Azathioprine], the “MEC” value in data set [2] was 1 µg/mL.
Take `O=C(O)c1cn(C2CC2)c2cc(N3CCNCC3)c(F)cc2c1=O` [Ciprofloxacin]: the “MEC” value in data set [2] was 0.2 µg/mL.
